# Measurements published in ChEMBL document CHEMBL1137072, “Peptide deformylase inhibitors with activity against respiratory tract pathogens” (Bioorg Med Chem Lett, 2004).
# Experiments:
# [1] = tested on: Escherichia coli; assay: Minimum inhibitory concentration required for primary screening against in-house strain of Escherichia coli tested in vitro; format: functional
# [2] = tested on: Staphylococcus capitis; assay: Minimum inhibitory concentration required for primary screening against in-house strain of Staphylococcus capitis tested in vitro; format: functional
# [3] = biological target: T1, Peptide deformylase (Escherichia coli, UniProt Q9JN24); assay: Inhibitory activity against Escherichia coli peptide deformylase (PDF) Nickel containing enzyme
# T1 sequence (Q9JN24 whole entry): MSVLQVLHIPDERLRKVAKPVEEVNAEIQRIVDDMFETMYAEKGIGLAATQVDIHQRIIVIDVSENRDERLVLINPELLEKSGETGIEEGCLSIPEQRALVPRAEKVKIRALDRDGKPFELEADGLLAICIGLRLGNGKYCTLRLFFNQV
# [4] = tested on: Moraxella catarrhalis; assay: Minimum inhibitory concentration required for primary screening against in-house strain of Moraxella catarrhalis tested in vitro; format: functional
# [5] = tested on: Streptococcus pneumoniae; assay: Minimum inhibitory concentration required for primary screening against in-house strain of Streptococcus pneumoniae tested in vitro; Range- 0.5-1; format: functional
# [6] = tested on: Haemophilus influenzae; assay: Minimum inhibitory concentration required for primary screening against in-house strain of Haemophilus influenzae tested in vitro; Range-0.125-2; format: functional
# [7] = tested on: Streptococcus pneumoniae; assay: Minimum inhibitory concentration required for primary screening against in-house strain of Streptococcus pneumoniae tested in vitro; Range- 1-2; format: functional
# [8] = tested on: Haemophilus influenzae; assay: Minimum inhibitory concentration required for primary screening against in-house strain of Haemophilus influenzae tested in vitro; Range- 0.25-2; format: functional
# [9] = tested on: Streptococcus pneumoniae; assay: Minimum inhibitory concentration required for primary screening against in-house strain of Streptococcus pneumoniae tested in vitro; Range- 0.06-2; format: functional
# [10] = tested on: Moraxella catarrhalis; assay: Minimum inhibitory concentration required for primary screening against in-house strain of Moraxella catarrhalis tested in vitro; Range- 0.015-0.12; format: functional
# [11] = tested on: Haemophilus influenzae; assay: Minimum inhibitory concentration required for primary screening against in-house strain of Haemophilus influenzae tested in vitro; Range- 0.5-4; format: functional
# [12] = tested on: Streptococcus pneumoniae; assay: Minimum inhibitory concentration required for primary screening against in-house strain of Streptococcus pneumoniae tested in vitro; Range- 0.25-0.5; format: functional
# [13] = tested on: Streptococcus pneumoniae; assay: Minimum inhibitory concentration required for primary screening against in-house strain of Streptococcus pneumoniae tested in vitro; format: functional
# [14] = tested on: Haemophilus influenzae; assay: Minimum inhibitory concentration required for primary screening against in-house strain of Haemophilus influenzae tested in vitro; Range- 0.5-8; format: functional
# [15] = tested on: Moraxella catarrhalis; assay: Minimum inhibitory concentration required for primary screening against in-house strain of Moraxella catarrhalis tested in vitro; Range- 0.125-0.25; format: functional
# [16] = tested on: Haemophilus influenzae; assay: Minimum inhibitory concentration required for primary screening against in-house strain of Haemophilus influenzae tested in vitro; Range- 0.125-2; format: functional
# [17] = tested on: Streptococcus pneumoniae; assay: Minimum inhibitory concentration required for primary screening against in-house strain of Streptococcus pneumoniae tested in vitro; Range- <0.125-0.25; format: functional
# [18] = tested on: Haemophilus influenzae; assay: Minimum inhibitory concentration required for primary screening against in-house strain of Haemophilus influenzae tested in vitro; Range- 0.5-2; format: functional
# [19] = tested on: Moraxella catarrhalis; assay: Minimum inhibitory concentration required for primary screening against in-house strain of Moraxella catarrhalis tested in vitro; Range = 0.125-0.25; format: functional
# [20] = tested on: Streptococcus pneumoniae; assay: Minimum inhibitory concentration required for primary screening against in-house strain of Streptococcus pneumoniae tested in vitro; Range- 0.25-1; format: functional
# [21] = tested on: Haemophilus influenzae; assay: Minimum inhibitory concentration required for primary screening against in-house strain of Haemophilus influenzae tested in vitro; Range- 2-4; format: functional
# [22] = tested on: Haemophilus influenzae; assay: Minimum inhibitory concentration required for primary screening against in-house strain of Haemophilus influenzae tested in vitro; Range- 0.125-4; format: functional
# [23] = tested on: Streptococcus pneumoniae; assay: Minimum inhibitory concentration required for primary screening against in-house strain of Streptococcus pneumoniae tested in vitro; Range- 0.25-0.5
# [24] = tested on: Moraxella catarrhalis; assay: microbe, parasite or virus in culture
# [25] = tested on: Streptococcus pneumoniae; assay: microbe, parasite or virus in culture
# Description: Minimum inhibitory concentration required for primary screening against in-house strain of Streptococcus pneumoniae tested in vitro; Range- 0.2-128
# [26] = tested on: Haemophilus influenzae; assay: microbe, parasite or virus in culture
# Description: Minimum inhibitory concentration required for primary screening against in-house strain of Haemophilus influenzae tested in vitro; Range- 0.004-1
# [27] = tested on: Streptococcus pneumoniae; assay: Minimum inhibitory concentration required for primary screening against in-house strain of Streptococcus pneumoniae tested in vitro; Range-0.008-2; format: functional
smiles,measurement,setting,value
CCCC[C@H](CN(O)C=O)C(=O)N[C@H](C(=O)c1ccccc1)C(C)(C)C,MIC,[1],12.5 µM
same,MIC,[2],12.5 µM
CCCC[C@H](CN(O)C=O)C(=O)N[C@H](C(=O)c1ccc(NS(C)(=O)=O)cc1)C(C)(C)C,IC50,[3],4 nM
CCCC[C@H](CN(O)C=O)C(=O)N[C@H](C(=O)c1ccc(OC)cc1)C(C)(C)C,IC50,[3],1 nM
CC(C)(C)[C@H](NC(=O)[C@H](CC1CCCC1)CN(O)C=O)C(=O)c1ccc(S(C)(=O)=O)cc1,MIC,[1],25 µM
same,MIC,[2],6.25 µM
same,IC50,[3],10 nM
CC(C)(C)[C@H](NC(=O)[C@H](CC1CCCC1)CN(O)C=O)C(=O)c1ccc(N2CCN(CCO)CC2)c(F)c1,MIC,[4],< 0.125 µg/mL
same,MIC,[5],< 1 µg/mL
same,MIC,[6],< 2 µg/mL
CC(C)(C)[C@H](NC(=O)[C@H](CC1CCCC1)CN(O)C=O)C(=O)c1ccc(N2CCN(CCO)CC2)cc1,MIC,[7],< 2 µg/mL
same,MIC,[4],< 0.125 µg/mL
same,IC50,[3],2 nM
same,MIC,[8],< 2 µg/mL
CCCC[C@H](CN(O)C=O)C(=O)N[C@H](C(=O)c1ccc(F)cc1)C(C)(C)C,IC50,[3],3 nM
CC(C)(C)[C@H](NC(=O)[C@H](CC1CCCC1)CN(O)C=O)C(=O)c1cc(F)c(F)cc1N1CCOCC1,MIC,[4],< 0.125 µg/mL
same,MIC90,[9],1 µg/mL
same,MIC90,[10],0.12 µg/mL
same,MIC90,[11],2 µg/mL
same,MIC,[12],< 0.5 µg/mL
same,IC50,[3],0.5 nM
same,MIC,[8],< 2 µg/mL
CC(C)(C)[C@H](NC(=O)[C@H](CC1CCCC1)CN(O)C=O)C(=O)c1ccc(N2CCOCC2)c(F)c1,MIC,[4],< 0.125 µg/mL
same,MIC,[13],0.25 µg/mL
same,MIC,[11],< 4 µg/mL
same,IC50,[3],0.6 nM
CCCC[C@H](CN(O)C=O)C(=O)N[C@H](C(=O)c1ccccn1)C(C)(C)C,IC50,[3],3 nM
CCCC[C@H](CN(O)C=O)C(=O)N[C@H](C(=O)c1cc2ccccc2o1)C(C)(C)C,MIC,[2],1.5 µM
same,IC50,[3],4 nM
CC(C)(C)[C@H](NC(=O)[C@H](CC1CCCC1)CN(O)C=O)C(=O)c1cc2ccccc2o1,IC50,[3],4 nM
CC(C)(C)[C@H](NC(=O)[C@H](CC1CCCC1)CN(O)C=O)C(=O)c1ccc(O)cc1,MIC,[1],6.25 µM
same,MIC,[2],3.1 µM
same,IC50,[3],2 nM
COc1ccc(C(=O)[C@@H](NC(=O)[C@H](CC2CCCC2)CN(O)C=O)C(C)(C)C)cc1,IC50,[3],3 nM
CC(C)(C)[C@H](NC(=O)[C@H](CC1CCCC1)CN(O)C=O)C(=O)c1ccc(N2CCN(CCN3CCCC3)CC2)c(F)c1,MIC,[14],< 8 µg/mL
same,MIC,[15],< 0.25 µg/mL
same,MIC,[12],< 0.5 µg/mL
same,IC50,[3],9 nM
CCCC[C@H](CN(O)C=O)C(=O)N[C@H](C(=O)c1ccc(NC(C)=O)cc1)C(C)(C)C,MIC,[1],12 µM
same,IC50,[3],8 nM
CC(C)(C)[C@H](NC(=O)[C@H](CC1CCCC1)CN(O)C=O)C(=O)c1ccc(N2CCC(O)CC2)cc1,MIC,[4],< 0.125 µg/mL
same,MIC,[13],0.25 µg/mL
same,IC50,[3],2 nM
same,MIC,[8],< 2 µg/mL
CC(C)(C)[C@H](NC(=O)[C@H](CC1CCCC1)CN(O)C=O)C(=O)c1ccc(F)cc1,IC50,[3],3 nM
CC(C)(C)[C@H](NC(=O)[C@H](CC1CCCC1)CN(O)C=O)C(=O)c1cc(F)c(F)cc1N1CCC(O)CC1,MIC,[4],< 0.125 µg/mL
same,MIC,[12],< 0.5 µg/mL
same,IC50,[3],1 nM
same,MIC,[8],< 2 µg/mL
CC(C)(C)[C@H](NC(=O)[C@H](CC1CCCC1)CN(O)C=O)C(=O)c1ccc(N2CCC(O)CC2)c(F)c1,MIC,[16],< 2 µg/mL
same,MIC,[4],< 0.125 µg/mL
same,MIC,[13],0.25 µg/mL
same,IC50,[3],2 nM
CCCC[C@H](CN(O)C=O)C(=O)N[C@H](C(=O)c1ccc(N2CCOCC2)cc1)C(C)(C)C,IC50,[3],5 nM
CC(C)(C)[C@H](NC(=O)[C@H](CC1CCCC1)CN(O)C=O)C(=O)c1ccc(N2CCC[C@H]2CO)cc1,MIC,[17],< 0.25 µg/mL
same,MIC,[4],< 0.125 µg/mL
same,IC50,[3],7 nM
same,MIC,[8],< 2 µg/mL
CC(C)(C)[C@H](NC(=O)[C@H](CC1CCCC1)CN(O)C=O)C(=O)c1cc(F)c(F)cc1N1CCN(CCO)CC1,MIC,[4],< 0.125 µg/mL
same,MIC,[5],< 1 µg/mL
same,IC50,[3],2 nM
same,MIC,[8],< 2 µg/mL
CC(C)(C)[C@H](NC(=O)[C@H](CC1CCCC1)CN(O)C=O)C(=O)c1ccc(N2CCN(CCN3CCOCC3)CC2)cc1,MIC,[18],< 2 µg/mL
same,MIC,[4],< 0.125 µg/mL
same,MIC,[12],< 0.5 µg/mL
same,IC50,[3],2 nM
CCCC[C@H](CN(O)C=O)C(=O)N[C@H](C(=O)c1ccc(N)cc1)C(C)(C)C,MIC,[2],12 µM
same,IC50,[3],8 nM
CC(C)(C)[C@H](NC(=O)[C@H](CC1CCCC1)CN(O)C=O)C(=O)c1cc(F)c(F)cc1N1CCC[C@H]1CO,MIC,[18],< 2 µg/mL
same,MIC,[4],< 0.125 µg/mL
same,MIC,[13],0.25 µg/mL
CCCC[C@H](CN(O)C=O)C(=O)N[C@H](C(=O)c1ccco1)C(C)(C)C,IC50,[3],5 nM
CCCC[C@H](CN(O)C=O)C(=O)N[C@H](C(=O)c1ccc(O)cc1)C(C)(C)C,IC50,[3],8 nM
CC(C)(C)[C@H](NC(=O)[C@H](CC1CCCC1)CN(O)C=O)C(=O)c1cc(F)c(F)cc1N1CCN(CCN2CCCC2)CC1,MIC,[19],< 0.25 µg/mL
same,MIC,[11],< 4 µg/mL
same,MIC,[12],< 0.5 µg/mL
same,IC50,[3],2 nM
CC(C)(C)[C@H](NC(=O)[C@H](CC1CCCC1)CN(O)C=O)C(=O)c1cc(F)c(F)cc1N1CCN(CCN2CCOCC2)CC1,MIC,[20],< 1 µg/mL
same,MIC,[21],< 4 µg/mL
same,MIC,[15],< 0.25 µg/mL
same,IC50,[3],2 nM
CC(C)(C)[C@H](NC(=O)[C@H](CC1CCCC1)CN(O)C=O)C(=O)c1ccc(N2CCC[C@H]2CO)c(F)c1,MIC,[16],< 2 µg/mL
same,MIC,[4],< 0.125 µg/mL
same,MIC,[13],0.25 µg/mL
same,IC50,[3],2 nM
CC(C)(C)[C@H](NC(=O)[C@H](CC1CCCC1)CN(O)C=O)C(=O)c1ccc(N2CCN(CCN3CCOCC3)CC2)c(F)c1,MIC,[22],< 4 µg/mL
same,MIC,[4],0.125 µg/mL
same,MIC,[12],< 0.5 µg/mL
same,IC50,[3],6 nM
CC(C)(C)[C@H](NC(=O)[C@H](CC1CCCC1)CN(O)C=O)C(=O)c1ccc(N2CCN(CCN3CCCC3)CC2)cc1,MIC,[23],< 0.5 µg/mL
same,MIC,[18],< 2 µg/mL
same,MIC,[15],< 0.25 µg/mL
same,IC50,[3],3 nM
CCCC[C@H](CN(O)C=O)C(=O)N[C@H](C(=O)c1ccc(C#N)cc1)C(C)(C)C,MIC,[1],6.25 µM
same,MIC,[2],3.1 µM
same,IC50,[3],7 nM
CCCC[C@H](CN(O)C=O)C(=O)N[C@H](C(=O)c1ccc(NC(=O)C(F)(F)F)cc1)C(C)(C)C,IC50,[3],20 nM
CCCC[C@H](CN(O)C=O)C(=O)N[C@H](C(C)=O)C(C)(C)C,MIC,[1],25 µM
same,MIC,[2],100 µM
O=C(O)c1cn(C2CC2)c2cc(N3CCNCC3)c(F)cc2c1=O [CIPROFLOXACIN],MIC90,[24],0.06 µg/mL
same,MIC90,[25],8 µg/mL
same,MIC90,[26],0.015 µg/mL
CC1(C)S[C@@H]2[C@H](NC(=O)Cc3ccccc3)C(=O)N2[C@H]1C(=O)[O-].[Na+] [PENICILLIN G SODIUM],MIC90,[27],1 µg/mL
